Reference: patent publication US6737383B1, “Herbicidal oxadiazolidines” (priority 1999, dated 2004)

Tests used:
wild oat = test: Test E wild oat; assay type: in vivo, Avena fatua; conditions: Preemergence; for Wild oat plant response rating (0 to 100 scale): Rate 250 g/ha
blackgrass = test: Test E blackgrass; assay type: in vivo, Alopecurus myosuroides; conditions: Preemergence; for Blackgrass plant response rating (0 to 100 scale): Rate 250 g/ha
winter wheat [1] = test: Test E winter wheat; assay type: in vivo, Triticum aestivum; conditions: Postemergence; for Wheat (winter) plant response rating: Rate 250 g/ha
In short: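 Postemergence: spray at 1–4 leaf stage, soil 60:40 sandy loam:potting mix; solvent + surfactant formulation; greenhouse 21–28 d; visual injury vs untreated controls.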

winter barley = test: Test E winter barley; assay type: in vivo, Hordeum vulgare; conditions: Preemergence; for Barley (winter) plant response rating (0 to 100 scale): Rate 250 g/ha
bamyardgrass = test: Test B flood test barnyardgrass; assay type: in vivo, Echinochloa crus-galli
In short: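 Plants were grown to the 2-leaf stage before treatment with test chemical, then held in a greenhouse for twelve to sixteen days. Injury was visually rated against untreated controls on a 0–10 scale, where 0 is no effect and 10 is complete control.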

green foxtail = test: Test E green foxtail; assay type: in vivo, Setaria viridis; conditions: Preemergence; for Green foxtail plant response rating (0 to 100 scale): Rate 250 g/ha
cocklebur = test: Test B pre/postemergence cocklebur; assay type: in vivo, Xanthium strumarium
In short: (§1)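 Herbicidal effect was estimated by eye on a ten-point control scale after plants spent twelve to sixteen days in a greenhouse following soil or foliar treatment. Foliar sprays targeted plants at one to four leaves; all doses were formulated in a non-phytotoxic solvent with surfactant.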

Italian ryegrass = test: Test E Italian ryegrass; assay type: in vivo, Lolium multiflorum; conditions: Preemergence; for I. Ryegrass plant response rating (0 to 100 scale): Rate 250 g/ha
winter wheat [2] = test: Test E winter wheat; assay type: in vivo, Triticum aestivum; conditions: Preemergence; for Wheat (winter) plant response rating (0 to 100 scale): Rate 250 g/ha
pigweed = test: Test B pre/postemergence pigweed; assay type: in vivo, Amaranthus retroflexus
In short: as §1

sugar beet = test: Test B pre/postemergence sugar beet; assay type: in vivo, Beta vulgaris
In short: as §1

[3] = Rate 500 g/ha, 0 to 100 scale where 0 is no effect and 100 is complete control
[4] = Rate 1000 g/ha, 0 to 100 scale, 0 no effect, 100 complete control
[5] = 0 to 100 scale where 0 is no effect and 100 is complete control
[6] = Rate 500 g/ha, 0 to 100 scale, 0 is no effect, 100 is complete control
[7] = Rate 62 g/ha, headed Pre-emergence (flood test species), scale 0 to 10 (0 no effect, 10 complete control)
[8] = Rate 125 g/ha, Pre-emergence, flood test species, scale 0 to 10 where 0 is no effect and 10 is complete control
[9] = Rate 250 g/ha, Pre-emergence, flood-test species, scale 0 to 10, 0 is no effect, 10 is complete control
[10] = Rate 500 g/ha, Pre-emergence, flood test species, scale 0 to 10 (0 no effect, 10 complete control)
[11] = Preemergence, Rate 62 g/ha, scale of 0 to 10 where 0 is no effect and 10 is complete control
[12] = Preemergence, Rate 250 g/ha, scale of 0 to 10 where 0 is no effect and 10 is complete control
[13] = Preemergence, Rate 500 g/ha, scale of 0 to 10 where 0 is no effect and 10 is complete control
[14] = Rate 62 g/ha, Postemergence, scale of 0 to 10 where 0 is no effect and 10 is complete control
[15] = Rate 125 g/ha, Postemergence, scale 0 to 10
[16] = Rate 125 g/ha, Preemergence, scale of 0 to 10 where 0 is no effect and 10 is complete control
[17] = Rate 500 g/ha, Postemergence, scale 0 to 10, 0 no effect, 10 complete control
[18] = Rate 31 g/ha, 0 to 100 scale, 0 no effect, 100 complete control
[19] = Rate 62 g/ha, 0 to 100 scale, 0 no effect, 100 complete control
[20] = Rate 125 g/ha, 0 to 100 scale (0 no effect, 100 complete control)
[21] = Rate 125 g/ha, Postemergence, scale of 0 to 10 where 0 is no effect and 10 is complete control
[22] = Rate 250 g/ha, Postemergence, scale of 0 to 10 where 0 is no effect and 10 is complete control

Cc1nc(C)c(Cn2c(=O)on(C(=O)N(c3ccc(F)cc3F)C(C)C)c2=O)s1 [Compound 233]
85: Plant response rating, Blackgrass (blackgrass; [4])
0: Barnyardgrass plant response rating (bamyardgrass; [7]) | Barnyardgrass plant response rating (bamyardgrass; [8]) | Barnyardgrass plant response rating (bamyardgrass; [9]) | Barnyardgrass plant response rating (bamyardgrass; [10]) | Cocklebur plant response rating (cocklebur; [11]) | Cocklebur plant response rating (cocklebur; [12]) | Plant response rating, Cocklebur (cocklebur; [13]) | Cocklebur plant response rating (cocklebur; [14]) | Cocklebur plant response rating (cocklebur; [16]) | Redroot pigweed plant response rating (pigweed; [14]) | Redroot pigweed plant response rating (pigweed; [15]) | Sugarbeets plant response rating (sugar beet; [11]) | Sugarbeets plant response rating (sugar beet; [14]) | Sugarbeets plant response rating (sugar beet; [15]) | Sugarbeets plant response rating (sugar beet; [16]) | Plant response rating (0 to 10; 0 is no effect, 10 is complete control), Sugarbeets (sugar beet; Rate 250 g/ha, Postemergence)
40: I. Ryegrass plant response rating (0 to 100 scale) (Italian ryegrass)
60: Plant response rating, Wild oat (wild oat; [3]) | Plant response rating, Wild oat (wild oat; [4]) | Plant response rating, Blackgrass (blackgrass; [3]) | Plant response rating, Wheat (winter) (winter wheat [1]; Rate 1000 g/ha, 0 to 100 scale where 0 is no effect and 100 is complete control) | Plant response rating, Barley (winter) (winter barley; [4]) | Plant response rating, I. Ryegrass (Italian ryegrass; [4]) | Plant response rating, Wheat (winter) (winter wheat [2]; [4])
7: Redroot pigweed plant response rating (pigweed; [12])
3: Redroot pigweed plant response rating (pigweed; [11])
30: Barley (winter) plant response rating (0 to 100 scale) (winter barley)
55: Wild oat plant response rating (0 to 100 scale) (wild oat) | Plant response rating, Wheat (winter) (winter wheat [1]; [6])
8: Plant response rating, Redroot pigweed (pigweed; [13]) | Plant response rating, Sugarbeets (sugar beet; [13])
50: Blackgrass plant response rating (0 to 100 scale) (blackgrass) | Wheat (winter) plant response rating (winter wheat [1]; [5]) | Plant response rating, Barley (winter) (winter barley; [3]) | Plant response rating, I. Ryegrass (Italian ryegrass; [3]) | Wheat (winter) plant response rating (0 to 100 scale) (winter wheat [2]) | Plant response rating, Wheat (winter) (winter wheat [2]; [3])
2: Cocklebur plant response rating (cocklebur; [15]) | Plant response rating (0 to 10; 0 is no effect, 10 is complete control), Cocklebur (cocklebur; Rate 250 g/ha, Postemergence) | Cocklebur plant response rating (cocklebur; [17]) | Plant response rating (0 to 10; 0 is no effect, 10 is complete control), Redroot pigweed (pigweed; Rate 250 g/ha, Postemergence)
6: Redroot pigweed plant response rating (pigweed; [16])
100: Green foxtail plant response rating (0 to 100 scale) (green foxtail) | Plant response rating, Green foxtail (green foxtail; [3]) | Plant response rating, Green foxtail (green foxtail; [4])
4: Redroot pigweed plant response rating (pigweed; [17]) | Sugarbeets plant response rating (sugar beet; [12]) | Sugarbeets plant response rating (sugar beet; [17])

[2H]C([2H])([2H])n1c(=O)on(C(=O)N(c2ccc(F)cc2)C(C)C)c1=O [Compound 245]
9: Plant response rating (0 to 10; 0 is no effect, 10 is complete control), Redroot pigweed (pigweed; Rate 250 g/ha, Postemergence) | Redroot pigweed plant response rating (pigweed; [17])
100: Plant response rating, Green foxtail (green foxtail; [19]) | Plant response rating, Green foxtail (green foxtail; [20])
40: Plant response rating, Wild oat (wild oat; [19]) | Plant response rating, Barley (winter) (winter barley; [18]) | Plant response rating, I. Ryegrass (Italian ryegrass; [19])
8: Redroot pigweed plant response rating (pigweed; [11]) | Sugarbeets plant response rating (sugar beet; [16])
50: Plant response rating, Blackgrass (blackgrass; [20]) | Plant response rating, Barley (winter) (winter barley; [19]) | Plant response rating, Wheat (winter) (winter wheat [2]; [20])
3: Redroot pigweed plant response rating (pigweed; [14]) | Sugarbeets plant response rating (sugar beet; [11])
7: Sugarbeets plant response rating (sugar beet; [17])
10: Plant response rating, Wheat (winter) (winter wheat [1]; Rate 62 g/ha, 0 to 100 scale) | Redroot pigweed plant response rating (pigweed; [12]) | Plant response rating, Redroot pigweed (pigweed; [13]) | Redroot pigweed plant response rating (pigweed; [16]) | Sugarbeets plant response rating (sugar beet; [12]) | Plant response rating, Sugarbeets (sugar beet; [13])
0: Plant response rating, Wheat (winter) (winter wheat [1]; [18]) | Plant response rating, Wheat (winter) (winter wheat [1]; Rate 125 g/ha, 0 to 100 scale, 0 is no effect, 100 is complete control) | Barnyardgrass plant response rating (bamyardgrass; [7]) | Barnyardgrass plant response rating (bamyardgrass; [8]) | Barnyardgrass plant response rating (bamyardgrass; [9]) | Barnyardgrass plant response rating (bamyardgrass; [10]) | Cocklebur plant response rating (cocklebur; [11]) | Cocklebur plant response rating (cocklebur; [14]) | Cocklebur plant response rating (cocklebur; [15]) | Plant response rating (0 to 10; 0 is no effect, 10 is complete control), Cocklebur (cocklebur; Rate 250 g/ha, Postemergence)
30: Plant response rating, Wild oat (wild oat; [18]) | Plant response rating, Wild oat (wild oat; [20])
70: Plant response rating, Barley (winter) (winter barley; [20])
20: Plant response rating, I. Ryegrass (Italian ryegrass; [18]) | Plant response rating, Wheat (winter) (winter wheat [2]; [18]) | Plant response rating, Wheat (winter) (winter wheat [2]; [19])
2: Cocklebur plant response rating (cocklebur; [12]) | Cocklebur plant response rating (cocklebur; [16])
1: Cocklebur plant response rating (cocklebur; [17]) | Sugarbeets plant response rating (sugar beet; [14])
60: Plant response rating, Blackgrass (blackgrass; [18]) | Plant response rating, Blackgrass (blackgrass; [19]) | Plant response rating, Green foxtail (green foxtail; [18]) | Plant response rating, I. Ryegrass (Italian ryegrass; [20])
6: Plant response rating, Cocklebur (cocklebur; [13])

CC(C)N(C(=O)n1oc(=O)n(Cc2ccccn2)c1=O)c1ccc(F)cc1 [Compound 267]
55: Wild oat plant response rating (0 to 100 scale) (wild oat) | Wheat (winter) plant response rating (0 to 100 scale) (winter wheat [2])
70: Plant response rating, Wild oat (wild oat; [3]) | Wheat (winter) plant response rating (winter wheat [1]; [5]) | Plant response rating, Wheat (winter) (winter wheat [1]; [6]) | Plant response rating, Barley (winter) (winter barley; [3]) | Plant response rating, Wheat (winter) (winter wheat [2]; [3])
100: Green foxtail plant response rating (0 to 100 scale) (green foxtail) | Plant response rating, Green foxtail (green foxtail; [3])
3: Cocklebur plant response rating (cocklebur; [17]) | Redroot pigweed plant response rating (pigweed; [16])
0: Barnyardgrass plant response rating (bamyardgrass; [7]) | Barnyardgrass plant response rating (bamyardgrass; [8]) | Barnyardgrass plant response rating (bamyardgrass; [9]) | Barnyardgrass plant response rating (bamyardgrass; [10]) | Cocklebur plant response rating (cocklebur; [11]) | Cocklebur plant response rating (cocklebur; [12]) | Plant response rating, Cocklebur (cocklebur; [13]) | Cocklebur plant response rating (cocklebur; [14]) | Cocklebur plant response rating (cocklebur; [21]) | Cocklebur plant response rating (cocklebur; [16]) | Redroot pigweed plant response rating (pigweed; [11]) | Redroot pigweed plant response rating (pigweed; [21]) | Plant response rating, Redroot pigweed (pigweed; [22]) | Sugarbeets plant response rating (sugar beet; [11]) | Sugarbeets plant response rating (sugar beet; [12]) | Sugarbeets plant response rating (sugar beet; [21]) | Sugarbeets plant response rating (sugar beet; [16])
6: Redroot pigweed plant response rating (pigweed; [12]) | Redroot pigweed plant response rating (pigweed; [17])
4: Sugarbeets plant response rating (sugar beet; [17])
2: Plant response rating, Sugarbeets (sugar beet; [22])
30: Barley (winter) plant response rating (0 to 100 scale) (winter barley)
7: Plant response rating, Redroot pigweed (pigweed; [13])
1: Plant response rating, Cocklebur (cocklebur; [22])
5: Plant response rating, Sugarbeets (sugar beet; [13])
60: Plant response rating, Blackgrass (blackgrass; [3])
50: Blackgrass plant response rating (0 to 100 scale) (blackgrass) | I. Ryegrass plant response rating (0 to 100 scale) (Italian ryegrass) | Plant response rating, I. Ryegrass (Italian ryegrass; [3])
